Reference: patent US5700481A, “Transdermal drug delivery process” (Takeda Chemical Industries, Ltd., priority 1995, dated 1997)

Tests used:
[1] = Correlation between initial electric current value and AUC value (Example 3); format: in vivo, SD rat (male, 7-week aged); details: in terms of dosage of 20 μg; initial current 0.2 mA/2.5 cm^2 to 0.7 mA/2.5 cm^2 (0.08 to 0.28 mA/cm^2); 48 tests; FIG. 5
Description: (§1) An abdominal skin of a SD rat (male, 7-week aged) was clipped with a hair clipper and treated with a shaver under pentobarbital-anesthetization, and was slightly rubbed with an absorbent cotton (cotton wool) containing a 70% aqueous solution of ethanol for defatting and disinfection. […] Meanwhile, in the Applicator A shown in FIG. 1, the dried drug was dissolved immediately before use by supplying or feeding water to the membrane from the reservoir. In the applicator B illustrated in FIG. 2, the applicator was first attached or adhered to the skin and then the dried drug was dissolved by supplying 120 μl of a distilled water from an injection tip. […]
Then, a continuous voltage application for 15 minutes was repeated for 3 times at a time interval of 5 minutes in the following manner. […] In the respective voltage application, observed electric current in the initial stage of the voltage application was respectively determined for each rat. […]
(§2) Under pentobarbital-anesthetization, an abdominal skin of a SD rat (male, 7-week aged) was clipped with a hair clipper and treated with a shaver, and was slightly rubbed with an absorbent cotton (cotton wool) containing a 70% aqueous solution of ethanol for defatting and disinfection. […] The current density determined in the initial stage of the voltage application was about 0.24 mA/cm^2 as a mean value of the each rat. […]

[2] = Transdermal iontophoretic delivery of salmon calcitonin with different amounts in drug-retaining membrane (Example 2); format: in vivo, SD rat (male, 7-week aged); details: 12 V
Description: as §1
Blood was took from jugular veins (cervical vein) of the rat and centrifuged at a rate of 12,000 rpm for 10 minutes, and the concentration of the salmon calcitonin in the obtained serum sample was determined by a radioimmunoassay method. […]
as §2

[3] = Transdermal iontophoretic delivery of salmon calcitonin with stepwise decreased voltage (Example 4); format: in vivo, male SD rat (7-week aged); details: for bioavailability (BA): Applicator A, 4 μg per membrane (BAC pretreated), 30 kHz, duty 50%
Description: (§3) Blood was took from jugular veins (cervical vein) of the rat and centrifuged at a rate of 12,000 rpm for 10 minutes, and the concentration of the salmon calcitonin in the obtained serum sample was determined by a radioimmunoassay method. The results are illustrated in FIG. 3.
An abdominal skin of a male SD rat (7-week aged) was clipped with a hair clipper and treated with a shaver under pentobarbital-anesthetization, and was slightly rubbed with an absorbent cotton holding a 70% aqueous solution of ethanol for defatting and disinfection. […] Immediately before the use of the applicator, the dried drug was dissolved by supplying water from the reservoir. Further, a reference electrode was attached and fixed to the skin in the same manner as Example 1.
Then, in the common condition of a frequency of 30 kHz and a duty of 50%, the calcitonin was transdermally delivered according to the following processes:
(1) a process of applying a voltage of 12 V for 5 minutes and, without interruption, applying a voltage of 7.5 V for 40 minutes,
(2) a process of applying a voltage of 12 V for 15 minutes and, without interruption, applying a voltage of 7.5 V for 30 minutes, and
(3) a process of applying a voltage of 12 V for 15 minutes.
The salmon calcitonin concentrations in the serum were evaluated in the same manner as Example 1, and the results are illustrated in FIG. 6.

[4] = Transdermal iontophoretic delivery of salmon calcitonin; serum concentration by radioimmunoassay and bioavailability (AUC relative to intravenous) (Example 1); format: in vivo, SD rat (male, 7-week aged); details: for bioavailability (BA): 20 μg per membrane (BSA pretreated), 40 kHz, duty 30%, 15 min x 3 at 5 min interval, vs intravenous AUC
Description: An abdominal skin of a SD rat (male, 7-week aged) was clipped with a hair clipper and treated with a shaver under pentobarbital-anesthetization, and was slightly rubbed with an absorbent cotton (cotton wool) containing a 70% aqueous solution of ethanol for defatting and disinfection. […] Meanwhile, in the Applicator A shown in FIG. 1, the dried drug was dissolved immediately before use by supplying or feeding water to the membrane from the reservoir. In the applicator B illustrated in FIG. 2, the applicator was first attached or adhered to the skin and then the dried drug was dissolved by supplying 120 μl of a distilled water from an injection tip. Further, a silver chloride electrode (2.5 cm^2) as a reference electrode was adhered and fixed in the opposite part to the adhered part of the applicator via an electrically conductible gel comprising 10% PVA gel containing 0.9% of NaCl in a thickness of 2 mm.
Then, a continuous voltage application for 15 minutes was repeated for 3 times at a time interval of 5 minutes in the following manner. That is, the voltage application was effected by a direct-current pulse application (depolarizing constant voltage square pulse application) with a frequency of 40 kHz and a duty (pulse-duty factor) of 30% using the applicator as an anode and the reference electrode as a cathode, with changing the applied voltage as follows. In the respective voltage application, observed electric current in the initial stage of the voltage application was respectively determined for each rat. The current density as a mean value for the subjects are as follows.
(1) Applicator A: voltage 6 V current density about 0.04 mA/cm^2
(2) Applicator B: voltage 12 V current density about 0.24 mA/cm^2
(3) Applicator C: voltage 12 V current density about 0.24 mA/cm^2
as §3

Substance: salmon calcitonin
- AUC value [1]: large AUC values
- bioavailability (BA) ([2]; Applicator B, drug-retaining membrane (1), 10 μg (BAC pretreated), 40 kHz, duty 30%, 15 min x 3 at 5 min interval): 23.3%
- serum salmon calcitonin concentration ([2]; according to possessing amount (10 or 20 μg), FIG. 4): could be controlled according to the possessing amount
- bioavailability (BA) ([3]; process (1): 12 V for 5 min then 7.5 V for 40 min): 13.6%
- bioavailability (BA) ([3]; process (2): 12 V for 15 min then 7.5 V for 30 min): 14.2%
- bioavailability (BA) ([3]; process (3): 12 V for 15 min): 3.6%
- serum salmon calcitonin concentration ([3]; processes (1) and (2) compared with process (3), FIG. 6): high
- bioavailability (BA) ([4]; Applicator A, applied voltage 6 V): 4.6%
- bioavailability (BA) ([4]; Applicator A, applied voltage 12 V): 16.6%
- bioavailability (BA) ([4]; Applicator B, applied voltage 12 V): 16.6%
- salmon calcitonin concentration in the serum ([4]; applied voltage 12 V (iontophoresis (2) and (3)) in comparison with 6 V (1), FIG. 3): can be increased in comparison with the iontophoresis (1)
